Read-outs that look alike come from different tables or passages of the source.
What was measured:
[1] = target: T1, Wee1 kinase domain (Homo sapiens, UniProt P30291); assay: Wee1 Kinase Biochemical Assay (ADP-Glo); conditions: 15 uM ATP
T1 construct: Wee1 kinase domain was purchased from Carna (catalog #05-177); purchased Carna 05-177
In short: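 The reaction mix held 1 nM Wee1 kinase domain, 15 uM ATP and 2 ng/mL Poly(Lys,Tyr 4:1) substrate and was left for 4 hours at 25 °C. ADP production was then measured with ADP-Glo, and percent inhibition was derived relative to DMSO and a saturating Wee1 inhibitor.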

[2] = tested on: phosphorylation of Cdc2 Y15 (Wee1 substrate) in A427 cells; assay: Phosphorylated Cdc2 MSD Electrochemiluminescence Assay; type: cell-based; conditions: Homo sapiens
In short: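 Read-out: percent residual phospho-Cdc2 Y15 relative to DMSO and positive-control Wee1 inhibitor, measured by MSD electrochemiluminescence capture/detection antibody assay in cell lysates. A427 cells received duplicate 3-fold compound dilution series 20 h post-seeding, with 6 h total incubation at 37 °C.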

[3] = class symbols, 1 nM Wee1 enzyme, 4 hours at 25° C.
[4] = A-427, class symbols, read-out: A427 pCDC2 MSD IC50

T1 sequence (P30291 299-569 limits assumed): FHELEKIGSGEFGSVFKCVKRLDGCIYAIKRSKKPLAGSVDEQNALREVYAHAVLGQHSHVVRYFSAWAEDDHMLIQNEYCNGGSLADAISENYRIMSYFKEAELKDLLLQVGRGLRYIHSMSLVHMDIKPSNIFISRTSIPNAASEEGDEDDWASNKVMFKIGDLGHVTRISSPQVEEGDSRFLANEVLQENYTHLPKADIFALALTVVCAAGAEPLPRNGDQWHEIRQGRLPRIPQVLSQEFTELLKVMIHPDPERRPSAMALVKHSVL

IC50 [1, 3] [nM]	IC50 [2, 4] [nM]	IC50 ([1]; Wee1 kinase domain, ADP-Glo) [nM]	IC50 ([2]; A-427, pCDC2 MSD) [nM]	SMILES
< 10	100 to 1000	–	–	CN1CC[C@@H](c2ccc(Nc3ncc4c(n3)N(c3cccc(N5CCOC5=O)n3)[C@@H]3CC(C)(C)OC[C@]43C)cc2)C1 (single isomer, unassigned) [Example 605]
–	–	< 10	1000 to 10000	CC1(C)C[C@H]2N(c3cccc(N=S(C)(C)=O)n3)c3nc(Nc4cnccn4)ncc3[C@@]2(C)CO1 (single isomer, unassigned) [Example 366]
–	–	< 10	100 to 1000	CNC(=O)c1ccc(Nc2ncc3c(n2)N(c2cccc(N=S(C)(C)=O)n2)[C@@H]2CC(C)(C)OC[C@]32C)cc1F [Example 119, 4-(((4bR,8aR)-9-(6-((dimethyl(oxo)-16-sulfaneylidene)amino)pyridin-2-yl)-4b,7,7-trimethyl-4b,5,7,8,8a,9-hexahydropyrano[3′,4′:4,5]pyrrolo[2,3-d]pyrimidin-2-yl)amino)-2-fluoro-N-methylbenzamide]
–	–	< 10	100 to 1000	CN1C[C@H]2C[C@@H]1CN2c1ccc(Nc2ncc3c(n2)N(c2cccc(N=S(C)(C)=O)n2)[C@@H]2CC(C)(C)OC[C@]32C)cc1F (single isomer, unassigned) [Example 176]
–	–	< 10	100 to 1000	C[C@H]1COC(=O)N1c1cccc(N2c3nc(Nc4cnn(C5CCNCC5)c4)ncc3[C@@]3(C)COC(C)(C)C[C@@H]23)n1 (single isomer, unassigned) [Example 255]
< 10	100 to 1000	–	–	Cc1cc(Nc2ncc3c(n2)N(c2cccc(N4CCOC4=O)n2)[C@@H]2CC(C)(C)OC[C@]32C)ccc1C1CCN(C)CC1 (single isomer, unassigned) [Example 597]
< 10	< 100	–	–	CC1(C)C[C@H]2N(c3cccc(N4CCOC4=O)n3)c3nc(Nc4ccc(O[C@H]5CCNC5)cc4)ncc3[C@@]2(C)CO1 [Example 613, 3-(6-((4bR,8aR)-4b,7,7-trimethyl-2-((4-(((S)-pyrrolidin-3-yl)oxy)phenyl)amino)-4b,7,8,8a-tetrahydropyrano[3′,4′:4,5]pyrrolo[2,3-d]pyrimidin-9(5H)-yl)pyridin-2-yl)oxazolidin-2-one]
< 10	100 to 1000	–	–	CN1C[C@@H]2CN(c3ccc(Nc4ncc5c(n4)N(c4cccc(N6CCCC6=O)n4)[C@@H]4CC(C)(C)OC[C@]54C)cc3)C[C@@H]2C1 [Example 694, 1-(6-((4bR,8aR)-4b,7,7-trimethyl-2-((4-((3aR,6aS)-5-methylhexahydropyrrolo[3,4-c]pyrrol-2(1H)-yl)phenyl)amino)-4b,7,8,8a-tetrahydropyrano[3′,4′:4,5]pyrrolo[2,3-d]pyrimidin-9(5H)-yl)pyridin-2-yl)pyrrolidin-2-one]
–	–	< 10	< 100	CN1CC[C@@H](c2ccc(Nc3ncc4c(n3)N(c3cccc(N=S(C)(C)=O)n3)[C@@H]3CC(C)(C)OC[C@]43C)cc2)C1 (single isomer, unassigned) [Example 129]
–	–	< 10	< 100	CN1CC(c2ccc(Nc3ncc4c(n3)N(c3cccc(N=S(C)(C)=O)n3)[C@@H]3CC(C)(C)OC[C@]43C)cc2Cl)C1 (single isomer, unassigned) [Example 181]
< 10	100 to 1000	–	–	CN[C@@H](C)c1cccc(N2c3nc(Nc4ccc(N5C[C@H]6C[C@@H]5CO6)cc4)ncc3[C@]3(C)COC(C)(C)C[C@H]23)n1 (single isomer, unassigned) [Example 579]
< 10	1000 to 10000	–	–	CCn1ccc(N2c3nc(Nc4ccc(N5CCN(C)CC5)cc4)ncc3[C@@]3(C)COC(C)(C)C[C@@H]23)n1 (single isomer, unassigned) [Example 744]
< 10	100 to 1000	–	–	C[C@H]1CCC(=O)N1c1cccc(N2c3nc(Nc4ccc(N5CC6(CN(C)C6)C5)cc4)ncc3[C@@]3(C)COC(C)(C)C[C@@H]23)n1 (single isomer, unassigned) [Example 725]
< 10	100 to 1000	–	–	CN[C@@H](C)c1cccc(N2c3nc(Nc4ccc(N5C[C@@H]6C[C@H]5CO6)cc4)ncc3[C@@]3(C)COC(C)(C)C[C@@H]23)n1 (single isomer, unassigned) [Example 581]

Source: patent publication US20260166039A1 (SCHRÖDINGER, INC., priority 2022, published 2026)
